Patent US20260217732A1, “WRN INHIBITOR” (SUZHOU PUHE BIOPHARMA CO., LTD., priority 2022, published 2026)
Where two headings read alike, the source gives them in different places.

Columns and labels:
[1] = target: T1, WRN enzyme (Homo sapiens, UniProt Q14191); test: WRN helicase hydrolysis (unwinding) of double-stranded DNA, fluorescence assay; assay type: biochemical; details: 30 min pre-incubation, 60 min reaction
T1 construct: 10 μL (2×) of WRN enzyme solution was added
Procedure: • The molecules of the present disclosure were tested for their activities on the WRN helicase hydrolysis of double-stranded DNA (Table 1).
A working solution to be tested and a buffer were prepared. The compound to be tested was dissolved in DMSO and subjected to 4× dilution (with 10 μM final concentration as the starting concentration). 0.2 μL of the solution of the compound to be tested was added to the 384-well plate and 10 μL (2×) of WRN enzyme solution was added. The solution was incubated in the dark for 30 minutes. Then, 10 μL of a substrate detection solution containing double-stranded DNA was added to initiate the reaction (the DNA has a length of 19 bp, and labeled with TAMRA and BHQ2 at 3′ and 5′-ends, respectively). The solution was incubated at room temperature for 60 minutes. The inhibitory activities (IC50) against WRN enzyme were calculated based on the change of Ex530/Em590 in the blank group (DMSO) and the compound group.

[2] = test system: SW48 colorectal cancer cells; test: 2D antiproliferation on MSI-H SW48 cells, CTG, 5 days; assay type: cell-based; details: for IC50 / inhibition at 38.15 pM / inhibition at 0.000152588 µM / inhibition at 0.000610352 µM / inhibition at 0.00244141 µM / inhibition at 0.00976562 µM / inhibition at 0.0390625 µM / inhibition at 0.15625 µM / inhibition at 0.625 µM / inhibition at […] / inhibition at 10 µM: Homo sapiens; for IC50: 120 h, SW48 MSI-H, 5 days; for inhibition at 38.15 pM: SW48, 0.038146973 nM; for inhibition at 0.000152588 µM: SW48, 0.152587891 nM; for inhibition at 0.000610352 µM: SW48, 0.610351563 nM; for inhibition at 0.00244141 µM: SW48, 2.44140625 nM; for inhibition at 0.00976562 µM: SW48, 9.765625 nM; for inhibition at 0.0390625 µM: SW48, 39.0625 nM; for inhibition at 0.15625 µM: SW48, 156.25 nM; for inhibition at 0.625 µM: SW48, 625 nM; for inhibition at […]: SW48, 2500 nM; for inhibition at 10 µM: SW48, 10000 nM
Procedure: The molecules of the present disclosure were tested for their anti-proliferative activity on MSI-H tumor cells.
SW48 colorectal cancer cells with MSI were cultured in a RMI1640 medium containing 10% FBS and 1% penicillin-streptomycin, and the mixture was cultured in a 37° C., 5% CO2 incubator. 40 μL of cell suspension was added to each well of a 384-well microplate. […] of compounds with different concentrations were added to each well using Echo, and the mixtures were cultured in a 37° C., 5% CO2 incubator for 5 days. 40 μL of CTG solution (Promega, Cat No. G7573) was added to each well and incubated in a 37° C., 5% CO2 incubator in the dark for 30 minutes. The luminescence value was read using an Envision multi-function microplate reader (Perkin Elmer, catalog number Envision 2104). The optical signal is proportional to the amount of ATP in the system, while the ATP content directly characterizes the number of viable cells in the system.

[3] = test system: HT-29 colorectal cancer cells; test: 2D antiproliferation on MSS HT-29 cells, CTG, 5 days; assay type: cell-based; details: Homo sapiens, 120 h, HT-29 MSS
Procedure: The molecules of the invention were tested for their anti-proliferative activities on MSS tumor cells.
HT-29 colorectal cancer cells with MSS were cultured in a McCoy's 5A medium containing 10% FBS and 1% penicillin-streptomycin in a 37° C., 5% CO2 constant temperature incubator. 40 μL of cell suspension was added to each well of a 384-well microplate. […] of compounds with different concentrations were added to each well using Echo. The mixtures were cultured in a 37° C., 5% CO2 constant temperature incubator for 5 days. 40 μL of CTG solution (Promega, Cat No. G7573) was added to each well, and the mixture was incubated in a 37° C., 5% CO2 constant temperature incubator for 30 minutes in the dark. The luminescence value was read using an Envision multi-function microplate reader (Perkin Elmer, catalog number Envision 2104). The optical signal is proportional to the amount of ATP in the system, while the ATP content directly characterizes the number of viable cells in the system.

[4] = test system: SW48 (MSI-H) colorectal cancer tumor cells; test: In vivo efficacy, SW48 xenograft in nude mice; parameters: species or system BALB/c nude mice; details: QD, oral; for TGI: 21 days; for Tumor Volume D 1: day 1; for Tumor volume D 21: day 21
Procedure: In vivo efficacy experiment in BALB/C nude mice. Details are as follows:
SW48 (MSI-H) colorectal cancer tumor cells were cultured (in an L15 medium with 10% fetal bovine serum), and inoculated into 6-8 week old female BALB/c nude mice (with body weight of about 20 g). All the mice were inoculated subcutaneously. The mice were raised in an SPF-grade experimental environment, and all the mice were free to take commercially certified standard diets. When the tumors grew to an average volume of about 160 mm^3 in mice, the test compound was orally administered daily. […] The tumor volume was measured with a two-dimensional caliper three times a week, and the animals were weighed every day. […] The volume calculation formula is: V=1/2a*b^2, where a represents the long diameter of the tumor and b represents the short diameter of the tumor.

[5] = female, CD1, mouse, in vivo
Procedure: (§1) Mouse Pharmacokinetic Evaluation Experiment
(§2) CD1 female mice were used as test animals to be administered orally/intravenously (with oral dosage of 10 mg/kg or intravenous dosage of 2 mg/kg).
(§3) Experimental scheme: The oral administration group comprised 3 mice per group (Solvent: 10% Hβ-CD-pH7.4), and the intravenous group comprised 3 mice per group. […] The blood concentration in the plasma of mice was determined using the LC/MS/MS method after the oral or intravenous administration, respectively, and the collected data were calculated using the AB Sciex QTRAP 6500 software.

[6] = in vivo; details: female, CD1, mouse
Procedure: as §1, §2, §3

[7] = read-out: Average Value/Inhibition Rate
[8] = read-out: Test 1/Inhibition Rate
[9] = read-out: Test 2/Inhibition Rate

T1 sequence (Q14191 whole entry): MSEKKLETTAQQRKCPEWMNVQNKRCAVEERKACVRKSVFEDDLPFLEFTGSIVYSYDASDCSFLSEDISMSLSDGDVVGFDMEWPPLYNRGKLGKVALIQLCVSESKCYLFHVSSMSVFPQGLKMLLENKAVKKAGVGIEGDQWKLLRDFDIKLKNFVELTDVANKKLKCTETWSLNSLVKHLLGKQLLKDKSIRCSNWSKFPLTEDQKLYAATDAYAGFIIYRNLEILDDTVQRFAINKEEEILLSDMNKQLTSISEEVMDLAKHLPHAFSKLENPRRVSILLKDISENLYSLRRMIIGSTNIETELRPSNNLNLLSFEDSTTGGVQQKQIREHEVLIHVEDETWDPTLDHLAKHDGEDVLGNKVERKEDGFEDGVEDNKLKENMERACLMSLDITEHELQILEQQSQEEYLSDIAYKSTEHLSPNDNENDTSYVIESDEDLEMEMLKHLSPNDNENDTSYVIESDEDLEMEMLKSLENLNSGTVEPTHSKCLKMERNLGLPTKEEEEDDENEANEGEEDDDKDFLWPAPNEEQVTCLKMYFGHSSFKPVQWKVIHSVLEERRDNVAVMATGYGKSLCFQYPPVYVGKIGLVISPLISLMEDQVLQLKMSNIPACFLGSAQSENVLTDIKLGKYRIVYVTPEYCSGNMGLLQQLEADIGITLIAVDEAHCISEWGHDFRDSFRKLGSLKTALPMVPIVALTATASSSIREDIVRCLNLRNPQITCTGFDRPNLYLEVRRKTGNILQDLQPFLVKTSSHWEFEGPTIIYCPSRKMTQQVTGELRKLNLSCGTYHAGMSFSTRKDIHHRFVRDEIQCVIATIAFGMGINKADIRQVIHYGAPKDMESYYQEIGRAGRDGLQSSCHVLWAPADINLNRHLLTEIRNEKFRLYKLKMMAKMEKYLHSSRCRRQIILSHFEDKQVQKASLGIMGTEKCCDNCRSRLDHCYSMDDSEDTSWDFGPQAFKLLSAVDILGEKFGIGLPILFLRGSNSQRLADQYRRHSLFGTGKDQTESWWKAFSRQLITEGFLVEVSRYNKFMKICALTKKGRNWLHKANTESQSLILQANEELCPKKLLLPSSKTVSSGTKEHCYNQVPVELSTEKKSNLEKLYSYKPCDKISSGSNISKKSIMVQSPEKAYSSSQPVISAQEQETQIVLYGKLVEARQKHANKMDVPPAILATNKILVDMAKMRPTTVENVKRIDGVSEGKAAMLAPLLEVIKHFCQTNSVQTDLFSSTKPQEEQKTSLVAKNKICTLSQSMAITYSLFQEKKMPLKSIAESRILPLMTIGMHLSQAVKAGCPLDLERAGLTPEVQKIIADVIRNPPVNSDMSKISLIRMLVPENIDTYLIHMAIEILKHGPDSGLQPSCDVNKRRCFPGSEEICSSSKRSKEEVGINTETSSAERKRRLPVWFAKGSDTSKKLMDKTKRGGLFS

Row | SMILES | IC50 [1] [nM] | IC50 [2] [nM] | inhibition at 38.15 pM [2, 7] [%] | inhibition at 38.15 pM [2, 8] [%] | inhibition at 38.15 pM [2, 9] [%] | inhibition at 0.000152588 µM [2, 7] [%] | inhibition at 0.000152588 µM [2, 8] [%] | inhibition at 0.000152588 µM [2, 9] [%] | inhibition at 0.000610352 µM [2, 7] [%] | inhibition at 0.000610352 µM [2, 8] [%] | inhibition at 0.000610352 µM [2, 9] [%] | inhibition at 0.00244141 µM [2, 7] [%] | inhibition at 0.00244141 µM [2, 8] [%] | inhibition at 0.00244141 µM [2, 9] [%] | inhibition at 0.00976562 µM [2, 7] [%] | inhibition at 0.00976562 µM [2, 8] [%] | inhibition at 0.00976562 µM [2, 9] [%] | inhibition at 0.0390625 µM [2, 7] [%] | inhibition at 0.0390625 µM [2, 8] [%] | IC50 [3] [nM] | also measured
1 | CCc1c(N2CCN(C(=O)c3ncnc(C)c3O)CC2)c(=O)n2nc(-c3cc4c(s3)COC4)nc2n1CC(=O)Nc1ccc(Br)cc1Cl [P24] | 1.1 | 39 | -4.41 | -3.47 | -5.36 | -3.37 | -6.51 | -0.227 | -6.66 | -6.64 | -6.68 | -5.26 | -4.87 | -5.64 | -8.31 | -8.85 | -7.77 | 43.7 | 40.3 | > 10000 | inhibition at 0.0390625 µM [2, 9]: 47.1%; inhibition at 0.15625 µM [2, 7]: 98.7%; inhibition at 0.15625 µM [2, 8]: 98.6%; inhibition at 0.15625 µM [2, 9]: 98.8%; inhibition at 0.625 µM [2, 7]: 97.4%; inhibition at 0.625 µM [2, 8]: 97.6%; inhibition at 0.625 µM [2, 9]: 97.2%; inhibition at […] [2, 7]: 97.6%; inhibition at […] [2, 8]: 96.9%; inhibition at […] [2, 9]: 98.3%; inhibition at 10 µM [2, 7]: 97.3%; inhibition at 10 µM [2, 8]: 97.4%; inhibition at 10 µM [2, 9]: 97.3%; TGI ([4]; 50 mg/kg): 105%; Tumor Volume D 1 ([4]; 50 mg/kg): 161 mm^3; Tumor volume D 21 ([4]; 50 mg/kg): 72 mm^3
2 | CCc1c(N2CCN(C(=O)c3ncnc(C)c3O)CC2)c(=O)n2nc(-c3cc4c(s3)COC4)nc2n1CC(=O)Nc1ccc(C(F)(F)F)cc1C [P29] | 2.1 | 32 | 18.3 | 18 | 18.6 | 25.6 | 26.1 | 25.1 | 14.7 | 19.4 | 9.96 | 19.8 | 12.8 | 26.8 | 21.2 | 17.4 | 25.1 | 70.9 | 70.9 | > 10000 | inhibitory activity on SW48 cells ([2]; 39 nM): high inhibitory activity; inhibition at 0.0390625 µM [2, 9]: 70.9%; inhibition at 0.15625 µM [2, 7]: 97.3%; inhibition at 0.15625 µM [2, 8]: 96.5%; inhibition at 0.15625 µM [2, 9]: 98.1%; inhibition at 0.625 µM [2, 7]: 99.4%; inhibition at 0.625 µM [2, 8]: 99.1%; inhibition at 0.625 µM [2, 9]: 99.6%; inhibition at […] [2, 7]: 99%; inhibition at […] [2, 8]: 99.1%; inhibition at […] [2, 9]: 99%; inhibition at 10 µM [2, 7]: 99.8%; inhibition at 10 µM [2, 8]: 100%; inhibition at 10 µM [2, 9]: 99.6%; TGI ([4]; 120 mg/kg): 105%; Tumor Volume D 1 ([4]; 120 mg/kg): 174 mm^3; Tumor volume D 21 ([4]; 120 mg/kg): 36 mm^3
3 | CCc1c(N2CCN(C(=O)c3ncnc(C)c3O)CC2)c(=O)n2nc(-c3cc4c(s3)COC4)nc2n1CC(=O)Nc1ccc(C(F)(F)F)c2ccoc12 [P57] | 1.3 | 34 | – | – | – | – | – | – | – | – | – | – | – | – | – | – | – | – | – | > 10000 | F [5]: 57%; AUC(0-t) ([6]; iv, 2 mg/kg): 3150 ng·h/mL; C0 ([6]; iv, 2 mg/kg): 2920 ng/mL; clearance ([6]; iv, 2 mg/kg): 10.5 mL/min/kg; half-life ([6]; iv, 2 mg/kg): 1.2 h; AUC(0-t) ([6]; po, 10 mg/kg): 8930 ng·h/mL; Cmax ([6]; po, 10 mg/kg): 4260 ng/mL; Tmax ([6]; po, 10 mg/kg): 0.5 h; half-life ([6]; po, 10 mg/kg): 1.4 h
